In patent US8613914B2, “Peptidomimetic sulfamide compounds and antiviral uses thereof” (Novartis AG, priority 2009, dated 2013):

Target: HCV NS3-4A serine protease (full-length NS3-4A protein) (Hepatitis C virus genotype 1a (isolate 1) (HCV), UniProt P26664)
Assay: HCV NS3-4A protease assay
Assay type: biochemical, HCV genotype 1a
Conditions: strain HCV-1, fluorogenic peptide substrate, read-out: Protease assay Ex. 12 IC50
Protocol: The inhibitory activity of certain compounds of Table A against HCV NS3-4A serine protease is determined in a homogenous assay using the full-length NS3-4A protein (genotype 1a, strain HCV-1) and a commercially available internally-quenched fluorogenic peptide substrate as described by Taliani, M., et al. 1996 Anal. Biochem. 240:60-67, which is incorporated by reference in its entirety.

Sequence of HCV NS3-4A serine protease (full-length NS3-4A protein) (P26664 1027-1657): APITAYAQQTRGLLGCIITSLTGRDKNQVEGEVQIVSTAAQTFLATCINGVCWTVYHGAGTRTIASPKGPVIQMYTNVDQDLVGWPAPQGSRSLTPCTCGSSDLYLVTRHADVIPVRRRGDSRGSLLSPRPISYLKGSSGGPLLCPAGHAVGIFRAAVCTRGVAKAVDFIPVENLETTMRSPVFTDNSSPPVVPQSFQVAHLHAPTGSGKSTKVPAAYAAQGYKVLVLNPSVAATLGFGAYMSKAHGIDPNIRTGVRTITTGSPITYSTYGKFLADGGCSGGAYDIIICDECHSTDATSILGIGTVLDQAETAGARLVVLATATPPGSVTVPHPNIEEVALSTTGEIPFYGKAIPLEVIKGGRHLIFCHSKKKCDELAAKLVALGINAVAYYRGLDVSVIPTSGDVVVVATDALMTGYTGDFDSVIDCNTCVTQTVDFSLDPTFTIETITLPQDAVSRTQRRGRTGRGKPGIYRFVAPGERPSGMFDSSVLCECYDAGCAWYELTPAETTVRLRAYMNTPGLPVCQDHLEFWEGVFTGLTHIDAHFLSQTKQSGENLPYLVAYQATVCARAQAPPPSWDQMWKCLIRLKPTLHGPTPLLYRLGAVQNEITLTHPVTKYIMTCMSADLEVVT
Sequence of HCV NS3-4A serine protease (full-length NS3-4A protein) (P26664 1658-1711 partner): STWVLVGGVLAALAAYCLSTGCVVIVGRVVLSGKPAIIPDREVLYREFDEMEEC

Compound	IC50 [nM]
C=C[C@@H]1C[C@]1(NC(=O)[C@@H]1C[C@@]2(CN1C(=O)[C@@H](NC(=O)[C@@H](NC(=O)[C@@H]1CCCN1CC)C1CCOCC1)C1(C)CCOCC1)C(C)(C)C21CCC1)C(=O)NS(=O)(=O)N1CCCC1 [Compound 129, (5R,8S)-7-[(2S)-2-{[(2S)-2-({[(2S)-1-ethylpyrrolidin-2-yl]carbonyl}amino)-2-(tetrahydro-2H-pyran-4-yl)acetyl]amino}-2-(4-methyltetrahydro-2H-pyran-4-yl)acetyl]-10,10-dimethyl-N-{(1R,2S)-1-[(pyrrolidin-1-ylsulfonyl)carbamoyl]-2-vinylcyclopropyl}-7-azadispiro[3.0.4.1]decane-8-carboxamide]	6
C=C[C@@H]1C[C@]1(NC(=O)[C@@H]1C[C@@]2(CN1C(=O)[C@@H](NC(=O)[C@@H](NC(=O)[C@H]1CCN1C(C)C)C1CCCCC1)C(C)(C)C)C(C)(C)C21CCC1)C(=O)NS(=O)(=O)N1CCCC1 [Compound 18, (5R,8S)-7-[(2S)-2-{[(2S)-2-cyclohexyl-2-({[(2R)-1-isopropylazetidin-2-yl]carbonyl}amino)acetyl]amino}-3,3-dimethylbutanoyl]-10,10-dimethyl-N-{(1R,2S)-1-[(pyrrolidin-1-ylsulfonyl)carbamoyl]-2-vinylcyclopropyl}-7-azadispiro[3.0.4.1]decane-8-carboxamide]	10
C=C[C@@H]1C[C@]1(NC(=O)[C@@H]1C[C@@]2(CN1C(=O)[C@@H](NC(=O)[C@@H](NC(=O)[C@@H]1CC(F)(F)CN1C(C)C)C1CCCCC1)C(C)(C)C)C(C)(C)C21CCC1)C(=O)NS(=O)(=O)N1CCCC1 [Compound 89, (5R,8S)-7-[(2S)-2-{[(2S)-2-cyclohexyl-2-({[(2S)-4,4-difluoro-1-isopropylpyrrolidin-2-yl]carbonyl}amino)acetyl]amino}-3,3-dimethylbutanoyl]-10,10-dimethyl-N-{(1R,2S)-1-[(pyrrolidin-1-ylsulfonyl)carbamoyl]-2-vinylcyclopropyl}-7-azadispiro[3.0.4.1]decane-8-carboxamide]	30
C=C[C@@H]1C[C@]1(NC(=O)[C@@H]1C[C@@]2(CN1C(=O)[C@@H](NC(=O)[C@@H](NC(=O)[C@@H]1CCCCN1C(C)C)C1CCCCC1)C(C)(C)C)C(C)(C)C21CCC1)C(=O)NS(=O)(=O)N(C)CC [Compound 170, (5R,8S)-7-[(2S)-2-{[(2S)-2-cyclohexyl-2-({[(2S)-1-isopropylpiperidin-2-yl]carbonyl}amino)acetyl]amino}-3,3-dimethylbutanoyl]-N-[(1R,2S)-1-({[ethyl(methyl)amino]sulfonyl}carbamoyl)-2-vinylcyclopropyl]-10,10-dimethyl-7-azadispiro[3.0.4.1]decane-8-carboxamide]	0.5
C=C[C@@H]1C[C@]1(NC(=O)[C@@H]1C[C@@]2(CN1C(=O)[C@@H](NC(=O)[C@@H](NC(=O)[C@@H]1CCCCN1C(C)C)C1CCCCC1)C1(C)CCOCC1)C(C)(C)C21CCC1)C(=O)NS(=O)(=O)N1CCCC1 [Compound 124, (5R,8S)-7-[(2S)-2-{[(2S)-2-cyclohexyl-2-({[(2S)-1-isopropylpiperidin-2-yl]carbonyl}amino)acetyl]amino}-2-(4-methyltetrahydro-2H-pyran-4-yl)acetyl]-10,10-dimethyl-N-{(1R,2S)-1-[(pyrrolidin-1-ylsulfonyl)carbamoyl]-2-vinylcyclopropyl}-7-azadispiro[3.0.4.1]decane-8-carboxamide]	1.5
C=C[C@@H]1C[C@]1(NC(=O)[C@@H]1C[C@@]2(CN1C(=O)[C@@H](NC(=O)[C@@H](NC(=O)[C@H]1CCCCN1C(C)C)C1CCCCC1)C(C)(C)C)C(C)(C)C21CCC1)C(=O)NS(=O)(=O)N(CC)C(C)C [Compound 120, (5R,8S)-7-[(2S)-2-{[(2S)-2-cyclohexyl-2-({[(2R)-1-isopropylpiperidin-2-yl]carbonyl}amino)acetyl]amino}-3,3-dimethylbutanoyl]-N-[(1R,2S)-1-({[ethyl(isopropyl)amino]sulfonyl}carbamoyl)-2-vinylcyclopropyl]-10,10-dimethyl-7-azadispiro[3.0.4.1]decane-8-carboxamide]	10
CC[C@@H]1C[C@]1(NC(=O)[C@@H]1C[C@@]2(CN1C(=O)[C@@H](NC(=O)[C@@H](NC(=O)[C@H]1CCCCN1C(C)C)C1CCCCC1)C(C)(C)C)C(C)(C)C21CCC1)C(=O)NS(=O)(=O)N1CCCC1 [Compound 123, (5R,8S)-7-[(2S)-2-{[(2S)-2-cyclohexyl-2-({[(2R)-1-isopropylpiperidin-2-yl]carbonyl}amino)acetyl]amino}-3,3-dimethylbutanoyl]-N-{(1R,2R)-2-ethyl-1-[(pyrrolidin-1-ylsulfonyl)carbamoyl]cyclopropyl}-10,10-dimethyl-7-azadispiro[3.0.4.1]decane-8-carboxamide]	8
C=C[C@@H]1C[C@]1(NC(=O)[C@@H]1C[C@@]2(CN1C(=O)[C@@H](NC(=O)[C@@H](NC(=O)Cn1nc(C)cc1C)C1CCCCC1)C(C)(C)C)C(C)(C)C21CCC1)C(=O)NS(=O)(=O)N1CCCC1 [Compound 186, (5R,8S)-7-{(2S)-2-[(cyclohexyl{[(3,5-dimethyl-1H-pyrazol-1-yl)acetyl]amino}acetyl)amino]-3,3-dimethylbutanoyl}-10,10-dimethyl-N-{(1R,2S)-1-[(pyrrolidin-1-ylsulfonyl)carbamoyl]-2-vinylcyclopropyl}-7-azadispiro[3.0.4.1]decane-8-carboxamide]	65
C=C[C@@H]1C[C@]1(NC(=O)[C@@H]1C[C@@]2(CN1C(=O)[C@@H](NC(=O)[C@@H](NC(=O)[C@@H]1CCCCN1C(C)C)C1CCCCC1)C(C)(C)C)C(C)(C)C21CCC1)C(=O)NS(=O)(=O)N(C)C [Compound 162, (5R,8S)-7-[(2S)-2-{[(2S)-2-cyclohexyl-2-{[(1-isopropylpiperidin-2-yl)carbonyl]amino}acetyl]amino}-3,3-dimethylbutanoyl]-N-[(1R,2S)-1-{[(dimethylamino)sulfonyl]carbamoyl}-2-vinylcyclopropyl]-10,10-dimethyl-7-azadispiro[3.0.4.1]decane-8-carboxamide]	0.9
C=C[C@@H]1C[C@]1(NC(=O)[C@@H]1C[C@@]2(CN1C(=O)[C@@H](NC(=O)[C@@H](NC(=O)[C@@H]1CCCN1CC(F)F)C1CCCCC1)C1CCOCC1)C(C)(C)C21CCC1)C(=O)NS(=O)(=O)N1CCCC1 [Compound 72, (5R,8S)-7-[(2S)-2-{[(2S)-2-cyclohexyl-2-({[(2S)-1-(2,2-difluoroethyl)pyrrolidin-2-yl]carbonyl}amino)acetyl]amino}-2-(tetrahydro-2H-pyran-4-yl)acetyl]-10,10-dimethyl-N-{(1R,2S)-1-[(pyrrolidin-1-ylsulfonyl)carbamoyl]-2-vinylcyclopropyl}-7-azadispiro[3.0.4.1]decane-8-carboxamide]	70
[2H]C([2H])([2H])C([2H])([2H])N(C([2H])([2H])C([2H])([2H])[2H])S(=O)(=O)NC(=O)[C@@]1(NC(=O)[C@@H]2C[C@@]3(CN2C(=O)[C@@H](NC(=O)[C@@H](NC(=O)[C@@H]2CCCCN2C(C)C)C2CCCCC2)C(C)(C)C)C(C)(C)C32CCC2)C[C@H]1C=C [Compound 149, (5R,8S)-7-[(2S)-2-{[(2S)-2-cyclohexyl-2-({[(2S)-1-isopropylpiperidin-2-yl]carbonyl}amino)acetyl]amino}-3,3-dimethylbutanoyl]-N-[(1R,2S)-1-{[(d10-diethylamino)sulfonyl]carbamoyl}-2-vinylcyclopropyl]-10,10-dimethyl-7-azadispiro[3.0.4.1]decane-8-carboxamide-d10]	1.5
C=C[C@@H]1C[C@]1(NC(=O)[C@@H]1C[C@@]2(CN1C(=O)[C@@H](NC(=O)[C@@H](NC(=O)[C@@H]1CCCCN1C(C)C)C1CCCCC1)C1CCCCC1)C(C)(C)C21CCC1)C(=O)NS(=O)(=O)N1CCCC1 [Compound 35, (5R,8S)-7-[(2S)-2-cyclohexyl-2-{[(2S)-2-cyclohexyl-2-({[(2S)-1-isopropylpiperidin-2-yl]carbonyl}amino)acetyl]amino}acetyl]-10,10-dimethyl-N-{(1R,2S)-1-[(pyrrolidin-1-ylsulfonyl)carbamoyl]-2-vinylcyclopropyl}-7-azadispiro[3.0.4.1]decane-8-carboxamide]	3
C=C[C@@H]1C[C@]1(NC(=O)[C@@H]1C[C@@]2(CN1C(=O)[C@@H](NC(=O)[C@@H](NC(=O)[C@@H]1CCCCN1CC)C1CCCCC1)C(C)(C)C)C(C)(C)C21CCC1)C(=O)NS(=O)(=O)N(C)CC [Compound 94, (5R,8S)-7-[(2S)-2-{[(2S)-2-cyclohexyl-2-({[(2S)-1-ethylpiperidin-2-yl]carbonyl}amino)acetyl]amino}-3,3-dimethylbutanoyl]-N-[(1R,2S)-1-({[ethyl(methyl)amino]sulfonyl}carbamoyl)-2-vinylcyclopropyl]-10,10-dimethyl-7-azadispiro[3.0.4.1]decane-8-carboxamide]	1.5
C=C[C@@H]1C[C@]1(NC(=O)[C@@H]1C[C@@]2(CN1C(=O)[C@@H](NC(=O)[C@@H](NC(=O)[C@@H]1CCCN(CC)C1)C(C)(C)C)C(C)(C)C)C(C)(C)C21CCC1)C(=O)NS(=O)(=O)N1CCCC1 [Compound 4, (5R,8S)-7-[(2S)-2-{[(2S)-2-({[(3R)-1-ethylpiperidin-3-yl]carbonyl}amino)-3,3-dimethylbutanoyl]amino}-3,3-dimethylbutanoyl]-10,10-dimethyl-N-{(1R,2S)-1-[(pyrrolidin-1-ylsulfonyl)carbamoyl]-2-vinylcyclopropyl}-7-azadispiro[3.0.4.1]decane-8-carboxamide]	35
C=C[C@@H]1C[C@]1(NC(=O)[C@@H]1C[C@@]2(CN1C(=O)[C@@H](NC(=O)[C@@H](NC(=O)c1cnccn1)C1CCCCC1)C(C)(C)C)C(C)(C)C21CCC1)C(=O)NS(=O)(=O)N(C)CC [Compound 167, (5R,8S)-7-[(2S)-2-({(2S)-2-cyclohexyl-2-[(pyrazin-2-ylcarbonyl)amino]acetyl}amino)-3,3-dimethylbutanoyl]-N-[(1R,2S)-1-({[ethyl(methyl)amino]sulfonyl}carbamoyl)-2-vinylcyclopropyl]-10,10-dimethyl-7-azadispiro[3.0.4.1]decane-8-carboxamide]	0.6
